Marks after values point to notes of the source that are not given here.
Test system: S180 sarcoma cells
Test: Growth of KM mice-transplanted S180 sarcoma cells in vivo
Design: unit not given here
Settings: for Sarcoma volume: V=(1/6)πABC, saline 1.20 ± 0.28
Experimental: S180 sarcoma cells were transplanted intraperitoneally into KM mice for 6-8 days and the ascites aseptically collected. The cell concentration was adjusted to 1×10^7 per ml with 10% FBS RPMI-1640, and 0.2 ml cell suspension was injected through the armpit into each KM mice for developing the sarcoma bearing mice model. […] Intraperitoneal injection of test substances started on the day immediately after tumor transplantation and continued once per day for 20 consecutive days.
On the day after the last test substance administration, the sarcomas were removed from the mice and weighed. The diameters of each sarcoma on the three planes (A, B, C) were measured by a vernier caliper. The volume of the sarcoma was calculated by the formula: V=(⅙)πABC.

[1] = Table 12, 250 μg/kg/day, saline 1.87 ± 0.52
[2] = Table 12, 500 μg/kg/day, saline 1.87 ± 0.52
[3] = Table 11, 10 μg/kg/day i.p. 20 days, saline 5.07 ± 5.46
[4] = Table 11, 50 μg/kg/day i.p. 20 days, saline 5.07 ± 5.46

Molecule	Sarcoma weight (Table 11, 2 mg/kg/day i.p. 20 days, saline 5.07 ± 5.46)	Sarcoma volume (Table 12, 40 mg/kg/day)	Sarcoma weight (Table 12, 40 mg/kg/day, saline 1.87 ± 0.52)	Sarcoma volume (Table 12, 250 μg/kg/day)	Sarcoma weight [1]	Sarcoma volume (Table 12, 500 μg/kg/day)	Sarcoma weight [2]	Sarcoma weight [3]	Sarcoma weight [4]
COc1cccc2c1C(=O)c1c(O)c3c(c(O)c1C2=O)C[C@@](O)(C(=O)CO)C[C@@H]3O[C@H]1C[C@H](N)[C@H](O)[C@H](C)O1 [Adriamycin, reference compound]	1.52 ± 1.75								
O=P1(N(CCCl)CCCl)NCCCO1 (centres unmarked) [Cyclophosphamide, reference compound]		0.76 ± 0.66	1.07 ± 0.80						
APEEHPTLLTEAPLNPK [CMS-010.02]				0.36 ± 0.40	0.68 ± 0.72	0.65 ± 0.67	0.97 ± 0.85		
EAPLNPK [CMS-010.23]				0.21 ± 0.15*^@	0.27 ± 0.18^@				
EHPTLLTEAPLNPK [CMS-010.09]				0.37 ± 0.44	0.45 ± 0.38*^@	0.84 ± 0.84	0.85 ± 0.70		
LLTEAPLNPK [CMS-010.17]				0.40 ± 0.24	0.65 ± 0.41	0.55 ± 0.34	0.91 ± 0.46		
LTEAPLNPK [CMS-010.19]				0.46 ± 0.58	0.41 ± 0.45*^@	0.40 ± 0.42	0.68 ± 0.68		
NPK [CMS-010.31]				0.25 ± 0.20*^@	0.27 ± 0.19*^@	0.43 ± 0.50	0.78 ± 0.89	1.05 ± 1.28	1.20 ± 1.60
TEAPLNPK [CMS-010.21]				0.44 ± 0.22	0.51 ± 0.29	0.44 ± 0.21	0.44 ± 0.22*^@		
TLLTEAPLNPK [CMS-010.15]				0.41 ± 0.37	0.45 ± 0.35*^@	0.63 ± 0.35	0.68 ± 0.36		
VALLT [CMS-010.103]								1.72 ± 1.53	1.48 ± 1.44
VAPE [CMS-010.29]				1.02 ± 0.66	1.24 ± 0.72	0.40 ± 0.11	0.55 ± 0.41		
VAPEE [CMS-010.27]				0.58 ± 0.58	0.78 ± 0.68	0.51 ± 0.33	1.05 ± 0.86		
VAPEEHP [CMS-010.22]				0.24 ± 0.08*^@	0.28 ± 0.12*^@	0.73 ± 0.87	0.85 ± 0.73		
VAPEEHPT [CMS-010.20]				0.88 ± 0.77	1.00 ± 0.76	0.54 ± 0.51	0.59 ± 0.46		
VAPEEHPTL [CMS-010.18]				0.27 ± 0.20*^@	0.44 ± 0.31*^@	0.58 ± 0.42	0.59 ± 0.48		
VAPEEHPTLL [CMS-010.16]				0.61 ± 0.44	0.63 ± 0.47	0.92 ± 0.36	0.99 ± 0.42		
VAPEEHPTLLTEAP [CMS-010.08]				0.20 ± 0.14*^@	0.38 ± 0.27*^@	1.01 ± 0.63	1.05 ± 0.64		
VAPEEHPTLLTEAPL [CMS-010.07]				0.24 ± 0.13*^@	0.32 ± 0.14*^@	0.37 ± 0.20	0.52 ± 0.25		
VAPEEHPTLLTEAPLN [CMS-010.05]				0.23 ± 0.19*^@	0.56 ± 0.33	0.34 ± 0.22	0.47 ± 0.29*^@		
VAPEEHPTLLTEAPLNP [CMS-010.03]				0.31 ± 0.22	0.68 ± 0.46	0.27 ± 0.33*^@	0.33 ± 0.35*^@		
